Test results taken from patent EP1144011B1, “PRODRUG COMPOUNDS AND PROCESS FOR PREPARATION THEREOF” (Coulter Pharmaceutical, Inc., priority 1998, dated 2000).
Square brackets hold non-standard residues; d marks the D form. Peptide text beside a SMILES is read from it. * marks the point of attachment. Sta = CC(C)C[C@H](N)[C@@H](O)CC(=O)O; Isovaleryl = CC(C)CC(=O)*

Experiments:
Carcinoma cell trouase = assay: Inhibition and re-activation of carcinoma cell trouase; format: biochemical; settings: for inhibition of trouase: carcinoma cell trouase
[1] = test system: MCF 7/6 (breast carcinoma) cell homogenate; assay: Compound screen: cleavage by MCF 7/6 cell homogenate, HPLC; format: biochemical
Description: Based on HPLC analysis of digestion products, activation of peptidyl-toxin to free toxin occurs via a series of enzyme catalyzed cleavage reactions. […] Initial endopeptidase cleavage occurs between the AA^3 (P1) and AA^2(P1') amino acids to yield alanyl-leucyl-doxorubicin.
(§1) Test samples were incubated at 37°C for 2 hr with the three different preparations of carcinoma enzyme and with whole blood, extracted with acetonitrile, and analyzed by HPLC using fluorescence detection. With few exceptions, results for carcinoma enzyme cleavage were the same for a partially purified fraction from HeLa cells, MFC 7/6 cell homogenate, or MCF 7/6 conditioned media.
MCF 7/6 cells were grown to confluence in a serum free medium containing DMEM:F12 (1:1), 50 mg/L bovine serum albumin, ITS-X, and Lipid Concentrate. 100 mL of cells were harvested by centrifugation at 4°C 10,000xg, for 20 min and decanting the supernatant. The pellet was resuspended in 2 mL phosphate buffered saline (Gibco) and centrifuged at 18,000xg for 10 min. […]
(§2) For HPLC analysis 50 µL of sample was injected on a 4.6 x 50 mm 2µ TSK Super-ODS chromatography column at 40°C and eluted with a 3 minute linear gradient from 26% to 68% acetonitrile in aqueous 20 mM ammonium acetate pH 4.5 buffer at 2 mL/min. Detection was by fluorescence using an excitation wavelength of 235 nm and an emission wavelength of 560 nm. […]

trouase [2] = assay: Compound screen: cleavage by HeLa cell anion exchange fraction pool (partially purified trouase), HPLC; format: biochemical, human; settings: 2 hr at 37°C
Description: as §1
Thirty billion commercially produced HeLa Cells (human cervical carcinoma, Computer Cell Culture Center, Seneffe, Belgium) were homogenized with a sonicator and with a Dounce homogenizer in 108 mL of aqueous lysis solution. […]
A portion of the ultracentrifugation supernatant was diluted 2-fold with a 20 mM triethanolamine-HCl pH 7.2 buffer containing 0.01% (w/v) Triton X-100 and 0.02% (w/v) sodium azide (equilibration buffer). […] Its transformation into L-alanyl-L-leucyl-doxorubicin was quantified by reverse phase high performance liquid chromatography utilizing fluorescence detection of the anthracycline moiety. […]
as §2

[3] = test system: MCF 7/6 (breast carcinoma) conditioned media; assay: Compound screen: cleavage by MCF 7/6 conditioned media, HPLC; format: biochemical; settings: 2 hr at 37°C
Description: as §1
MCF 7/6 cells were grown to confluence in DMEM/F12 (1:1) medium containing 10 % fetal bovine serum, 0.05% (w/v) L-glutamine, 250 IU/mL penicillin, and 100 µg/mL streptomycin. Cells were then washed twice with phosphate buffered saline and incubated 24 hr at 5% CO2, 37°C, in DMEM/F12 (1:1), 0.02% BSA, ITS-X. The conditioned media was then decanted and, using a stirred cell apparatus with a YM10 (10.000 MW cutoff) ultrafiltration membrane(Millipore), exchanged once with 10 mM HEPES buffer, pH 7.2 and concentrated twenty-fold. This solution was stored in aliquots at-20°C for use in the compound screen. […]
as §2

[4] = Aggregation: filtration through Centricon filter units of different MWCO; format: physicochemical; settings: 17.4 µMol/ml in distilled water, 2 hr at 1500g; for 3000 MWCO Filt.: quantitated at λ475 nm
Description: Sci., 73(6):766-770 (1984). Confalonieri, C. et al., The use of new laser particle sizer and shape analyser to detect and evaluate gelatinous microparticles suspended in reconstituted anthracycline infusion solutions, J. Pharmaceut. Biomed. Anal., 9(1):1-8 (1991). […] Each filter unit was centrifuged for 2 hr at 1500g force. […]

[5] = test system: LS-174T human colorectal carcinoma; assay: Nude mouse xenograft model, LS-174T
[6] = Acute toxicity after intravenous injection in mice; format: in vivo; settings: iv bolus of 250 mg/kg (Dox-HCl eq.), three to five mice per group
[7] = Supporting toxicity studies; settings: doses of up to 106.8 mg/kg
[8] = test system: adriamycin-resistant colorectal carcinoma CXF280/10; assay: Nude mouse xenograft model, CXF280/10; format: in vivo; settings: CXF280/10 xenograft
[9] = test system: estrogen-dependent MCF-7/6 mammary tumor; assay: Nude mouse xenograft model, MCF-7/6; format: in vivo; settings: MCF-7/6 xenograft
trouase [10] = assay: Trouase cleavage of N-capped peptidyl-daunorubicin (defining characteristic); format: biochemical; settings: under appropriate assay conditions
Description: Trouase is the enzyme which is thought to be critical for specific activation of prodrug at the target tissue.

[11] = subcutaneous LS174T tumors, five weekly intravenous doses of 57, 64 and 71 mg/kg, versus vehicle-treated controls

c1cnc2c(c1)ccc1cccnc12 [1,10-phenanthroline]
inhibition of trouase (Carcinoma cell trouase): inhibited

CCCNC(=O)[C@H]1O[C@@H]1C(=O)N[C@H](C(=O)N1CCC[C@H]1C(=O)O)[C@@H](C)CC [CA074]
inhibition of trouase (Carcinoma cell trouase): not

CC(C)C[C@H](NC(=O)[C@H]1O[C@@H]1C(=O)O)C(=O)NCCCCN=C(N)N [E64]
inhibition of trouase (Carcinoma cell trouase): not

O=C(O)CN(CCN(CC(=O)O)CC(=O)O)CC(=O)O [EDTA]
inhibition of trouase (Carcinoma cell trouase): inhibited

COc1cccc2c1C(=O)c1c(O)c3c(c(O)c1C2=O)C[C@@](O)(C(C)=O)C[C@@H]3O[C@H]1C[C@H](NC(=O)[C@H](CC(C)C)NC(=O)[C@H](C)NC(=O)[C@H](CC(C)C)NC(=O)[C@H](C)NC(=O)CCC(=O)O)[C@H](O)[C@H](C)O1 [P2 L-alanine compound]
extent (rate) of cleavage by cell homogenate versus the P2 β-alanine compound ([1]; 2 hr at 37°C): 1.3 fold
extent of cleavage with the partially purified trouase preparation versus the P2 β-alanine compound (trouase [2]): 0.6 fold
extent of cleavage by conditioned medium versus the P2 β-alanine compound [3]: about the same

COc1cccc2c1C(=O)c1c(O)c3c(c(O)c1C2=O)C[C@@](O)(C(=O)CO)C[C@@H]3O[C@H]1C[C@H](N)[C@H](O)[C@H](C)O1 [doxorubicin]
3000 MWCO Filt. ([4]; passing through filter): 81%
3000 MWCO Filt. ([4]; passing through filter, listed as Dox): 81%
10000 MWCO Filt. ([4]; passing through filter): 82%
50000 MWCO Filt. ([4]; passing through filter): 93%
3000 MWCO Ret. ([4]; retained): 10%
10000 MWCO Ret. ([4]; retained): 2%
50000 MWCO Ret. ([4]; retained): 0.5%
Dose limiting toxicity (cardiotoxicity and myelosuppression), dose at which observed ([5]; repeated administration): ≥ 3 mg/kg

CO[C@@H]1[C@H](OC(=O)/C=C/C=C/C=C/C=C/C(=O)O)CC[C@]2(CO2)[C@H]1[C@@]1(C)O[C@@H]1CC=C(C)C [fumagillin]
inhibition of trouase (Carcinoma cell trouase): not

COc1cccc2c1C(=O)c1c(O)c3c(c(O)c1C2=O)CC(O)(C(=O)CO)CC3OC1CC(NC(=O)C(CC(C)C)NC(=O)C(C)NC(=O)C(CC(C)C)NC(=O)CCNC(=O)CCCC(=O)O)C(O)C(C)O1 (stereo not drawn) [glutaryl βAlaLeuAlaLeu-Dox, Gl-β-Ala-Leu-Ala-Leu-Dox]
survival [6]: all animals survived up to 8 days

CC(=O)N[C@@H](CC(C)C)C(=O)N[C@@H](CC(C)C)C(=O)N[C@H](C=O)CCCNC(=N)N [leupeptin]
inhibition of trouase (Carcinoma cell trouase): not

CC(C)CC(=O)N[C@H](C(=O)N[C@H](C(=O)N[C@@H](CC(C)C)[C@@H](O)CC(=O)N[C@@H](C)C(=O)N[C@@H](CC(C)C)[C@@H](O)CC(=O)O)C(C)C)C(C)C [pepstatin] (Isovaleryl-VV[Sta]A[Sta]-OH)
inhibition of trouase (Carcinoma cell trouase): not

COc1cccc2c1C(=O)c1c(O)c3c(c(O)c1C2=O)CC(O)(C(=O)CO)CC3OC1CC(NC(=O)C(CC(C)C)NC(=O)C(C)NC(=O)C(CC(C)C)NC(=O)CCNC(=O)CCC(=O)O)C(O)C(C)O1 (stereo not drawn) [succinyl-β-Ala-Leu-Ala-Leu-Dox]
kidney toxicity and myelosuppression [7]: not observed
inhibiting the growth of human tumors [8]: efficacious
activation of peptidyl-toxin (digestion products by HPLC) ([1]; extracts of carcinoma cells or carcinoma cell conditioned media, two steps, at least two enzymes): converted to leucyl-doxorubicin
survival [6]: all animals survived up to 8 days
inhibiting the growth of human tumors [9]: efficacious
inhibiting the growth of human tumors ([5]; LS-174T xenograft): efficacious
toxicity at efficacious doses ([5]; LS-174T xenograft model): without significant toxicity
efficacy in inhibiting LS-174T tumor compared to doxorubicin at 3.0 mg/kg and saline ([5]; doses of 49, 57 and 64 mg/kg): superior efficacy
body weight ([5]; repeat dosing, LS174T model): Some dose-dependent body weight loss
safety and tolerability ([5]; repeat-dose levels and frequencies that demonstrated anti-tumor efficacy): safe and well-tolerated
Mean Day of Survival (MDS) [5, 11]: significant, dose-dependent, replicable extension
tumor volume [5, 11]: decreased size of the tumor

COc1cccc2c1C(=O)c1c(O)c3c(c(O)c1C2=O)C[C@@](O)(C(C)=O)C[C@@H]3O[C@H]1C[C@H](NC(=O)[C@H](CC(C)C)NC(=O)[C@H](C)NC(=O)[C@H](CC(C)C)NC(=O)CCNC(=O)CCC(=O)O)[C@H](O)[C@H](C)O1 [succinyl-βAlaLeuAlaLeu-Daunorubicin, Suc-β-Ala-Leu-Ala-Leu-Dnr]
cleavage by trouase (trouase [10]): readily cleaves

CC[C@H](C)[C@H](NC(=O)CCNC(=O)CCC(=O)O)C(=O)N[C@@H](C)C(=O)N[C@@H](CC(C)C)C(=O)N[C@H]1C[C@H](O[C@H]2C[C@](O)(C(C)=O)Cc3c(O)c4c(c(O)c32)C(=O)c2c(OC)cccc2C4=O)O[C@@H](C)[C@H]1O [succinyl-βAlalleAlaLeu-Daunorubicin]
trouase activity relative to succinyl-βAlaLeuAlaLeu-Daunorubicin (trouase [10]): at least twenty-fold less active

aminoethylbenzene-sufonate
inhibition of trouase (Carcinoma cell trouase): not

cobalt
concentration that re-activates EDTA inactivated trouase (Carcinoma cell trouase): 50 to 100 µM

cupric cations
re-activation of EDTA inactivated trouase (Carcinoma cell trouase): not

manganese
concentration that re-activates EDTA inactivated trouase (Carcinoma cell trouase): 50 to 1000 µM

zinc
re-activation of EDTA inactivated trouase (Carcinoma cell trouase): not
